{"source": "patent US7118767B2", "about": "“Pharmaceutical composition for increasing the production of nitric oxide and IFN-γ, and process for preparation thereof” (Jakwang Co., Ltd., priority 2001, dated 2006)", "molecules": {"B1": {"name": "rIFN-γ: recombinant IFN-γ (rIFN-γ), used at 10 U/mL (protein, UniProt P01579 24-161, looked up)", "Interferon gamma": "QDPYVKEAENLKKYFNAGHSDVADNGTLFLGILKNWKEESDRKIMQSQIVSFYFKLFKNFKDDQSIQKSVETIKEDMNVKFFNSNKKKRDDFEKLTNYSVTDLNVQRKAIHELIQVMAELSPAAKTGKRKRSQMLFRG"}}, "key": {"[1]": {"system": "macrophages", "experiment": "Inhibitory effect of N^GMMA on NO production induced by liquids of Example 1 in macrophages", "format": "cell-based, mice", "details": "macrophages with liquids (1 mg/mL) of Example 1 and IFN-γ; FIG. 3", "protocol": "(§1) The amount of NO production from macrophages was measured by Griess reaction by quantitizing nitrite (NO2^−), oxides of NO, accumulated on the broth. That is, 100 μL of Griess reagents in which 0.1% naphthylethylene diaminedihydrochloride and 1% sulfanilamide is mixed at the same amount and 100 μL of culture media was mixed, and after 10 minutes, absorbance was measured at 540 nm by ELISA reader. Standard curve using sodium nitrite as standard substance was drawn and the concentration of NO was determined from the absorbance.\nTo investigate if iNOS production from macrophages by the composition of the present invention is included in L-arginine-dependent process, the macrophages were treated liquids (1 mg/mL) of Example 1 in the presence of IFN-γ and NGMMA, the competitive inhibitor of NO production, and the amount of NO production was measured by the same method as Experiment 2."}, "[2]": {"system": "macrophages", "experiment": "Inhibiting effect on iNOS production by NF-kB inhibitor (NO2^- concentration in macrophages)", "format": "cell-based, mice", "protocol": "as §1\nHereupon, macrophages were treated with recombinant IFN-γ (rIFN-γ) and liquids (1 mg/mL) of Example 1 followed by treatment with pyrrolidine dithiocarbamnate (PDTC) and N^α-Tosyl-phenylalanyl chloromethyl ketone (TPCK), which are NF-kB inhitors, respectively and the change of concentration of NO2^− was observed together with control group. The results are shown in the hereinbelow Table 1 [Inhibitory effect on iNOS production by NF-kB inhibitor]."}}, "data": [{"molecule": "CNC(=N)NCCC[C@H](N)C(=O)O", "note": "[N^GMMA, N^G-monomethyl-L-arginine]", "values": [{"measurement": "amount of NO production as the amount of N^GMMA increases", "setting": "[1]", "result": "tendency to decrease"}]}, {"molecule": "S=C(S)N1CCCC1", "note": "[PDTC, pyrrolidine dithiocarbamnate]", "values": [{"measurement": "Concentration of NO2^-", "setting": "[2]; rIFN-γ (10 U/mL) + Liquids of Example 1 (1 mg/mL) + PDTC (100 μM)", "result": "10.5 ± 2.8"}]}, {"molecule": "B1", "values": [{"measurement": "Concentration of NO2^-", "setting": "[2]; rIFN-γ (10 U/mL) only", "result": "32 ± 3.2"}]}]}
